Experimental data published in PubChem BioAssay AID179 (DTP/NCI, 2004).
Several values for one entry are separate records, joined by “and”; a condition that tells them apart may be missing. Identical values can stand only once. Activity calls are given as the source filed them.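 How the source made its calls: active means compounds giving half or more protection of infected cells from virus-caused growth loss, again on retest; inactive means the rest.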 Where a SMILES comes first, the peptide text is derived from it.

Tested on: CEM cells HIV-1 protection, formazan growth assay
Assay: NCI AIDS Antiviral Assay
Details: for IC50: measured here: growth of uninfected CEM cells
Outline: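 Five concentrations of each compound were applied to infected and uninfected human CEM cells. Protection from HIV-1 was judged from growth measured with a soluble formazan assay.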

| Structure (SMILES) | EC50 | IC50 | outcome |
| --- | --- | --- | --- |
| CCc1cccc(C(C)C)c1NC(=O)C(=O)C1C(=O)Nc2ccccc2S1=O (centres undefined) | > 91.2 µM | > 91.2 µM |  |
| CC12CC3CC(C)(C1)CC(SC(=N)N)(C3)C2 | > 776 µM | 38.9 µM |  |
| CS(=O)(=O)c1ccc(N=C/C=C/Nc2ccc(S(C)(=O)=O)cc2)cc1 | > 200 µM | > 200 µM |  |
| Oc1cc2c(cc1C(c1cc3c(cc1O)OCO3)c1cc3c(cc1O)OCO3)OCO2 | > 117 µM | 22.4 µM |  |
| O=C(NCCCN(CCCCN(CCCNC(=O)c1cc(S(=O)(=O)O)cc(O)c1O)C(=O)c1cc(S(=O)(=O)O)cc(O)c1O)C(=O)c1cc(S(=O)(=O)O)cc(O)c1O)c1cc(S(=O)(=O)O)cc(O)c1O | > 200 µM | 72.4 µM |  |
| Cc1nc2c(=S)[nH]ncc2[nH]1 | > 200 µM | > 200 µM |  |
| C=C1CC(Cn2cc(Br)c(=O)[nH]c2=O)(c2ccc(-c3ccccc3)cc2)OC1=O (centres undefined) | > 20 µM | 0.457 µM |  |
| COc1cc2c(cc1OC)C(CC(=O)NN=C(C)C)NCC2 (centres undefined) | > 813 µM | > 813 µM |  |
| O=C(Nc1ccc(O)c(C(=O)O)c1)c1ccccc1 | > 200 µM | > 200 µM |  |
| Cc1ccc(NC(=S)N/N=C(/c2ccccc2)c2ccccn2)cc1 | > 0.2 µM | 0.105 µM |  |
| CC1(C)CC(=O)C(C(CC(c2ccccc2)c2cc3c(cc2O)OCO3)C2=C(O)CC(C)(C)CC2=O)=C(O)C1 (centres undefined) | > 200 µM | 112 µM |  |
| O=C(O)/C=C\Sc1ccccc1C(=O)O | > 1120 µM | > 1120 µM |  |
| CCOP(=O)(OCC)/C(C#N)=C/c1cc(OC)ccc1OC | > 398 µM | 24 µM |  |
| Cc1cn(C2CC(F)C(COC(=O)CCCCCCCCCCCBr)O2)c(=O)[nH]c1=O (centres undefined) | 0.024 µM | 28.8 µM |  |
| COc1ccc2c3ccc4c(c3n(C)c2c1)C(=O)C=CC4=O | > 3.55 µM | > 3.55 µM |  |
| CC(=O)Nc1ccccc1 | > 1860 µM | > 1860 µM |  |
| c1ccc(CN2COCO[C@H]3CCC[C@@H]32)cc1 | > 200 µM | 123 µM |  |
| Cc1nc(C)c(N2CCN([N+](=O)[O-])CC2)c(=O)[nH]1 | > 200 µM | > 200 µM |  |
| CN(C)c1cc2ccccc2oc1=O | > 692 µM | > 692 µM |  |
| O=S(O)CCCSSc1ccccc1 |  |  | inactive |
| COc1ccc(Nc2ccc3ccccc3c2-c2c(O)ccc3ccccc23)cc1 | > 200 µM | 10.5 µM |  |

| Structure (SMILES) | EC50 | IC50 | outcome |
| --- | --- | --- | --- |
| CCS(=O)(=O)CCn1c(=O)c2c(ncn2C)n(C)c1=O | > 200 µM | > 200 µM |  |
| C/C=C1/CC(C(=O)OC)N(C(=O)OCc2ccccc2)C1=S (centres undefined) | > 200 µM | > 200 µM |  |
| Cc1c(C#N)c2n(c1C)CCCC(=O)N2 | > 219 µM | > 219 µM |  |
| C(=N\N=C\c1ccccn1)/c1ccccn1 | > 200 µM | 61.7 µM |  |
| C[C@]12CC[C@H](O)CC1=CC[C@@H]1[C@@H]2CC[C@]2(C)/C(=N/OCCN3CCCC3)CC[C@@H]12 | > 200 µM | 9.33 µM |  |
| O=C1C(=C/C=C2/SC(c3ccccc3)(c3ccccc3)c3ccccc32)C(=O)c2ccccc21 | > 200 µM | > 200 µM |  |
| Oc1[nH]c2ccccc2c1N=NC(=S)NCc1ccccn1 | > 2 µM | 0.0295 µM |  |
| Cc1cn([C@@H]2C[C@H](CO)[C@@H]2O)c(=O)[nH]c1=O | > 200 µM | > 200 µM |  |
| NCCCCN(CCCN)Cc1ccccc1 |  |  | inactive |
| O=C(Nc1ccccc1)OCC1OCOC(COC(=O)Nc2ccccc2)C1OC(=O)Nc1ccccc1 (centres undefined) | > 200 µM | 4.47 µM |  |
| Cn1c([C@H](C#N)c2ncccc2[N+](=O)[O-])nc2ccccc21 | > 200 µM | 110 µM |  |
| CC1(C)c2ccccc2-c2nc3ccccc3c3c2C1OC3=O (centres undefined) | > 832 µM | > 832 µM |  |
| N#CC1=C(C#N)SCCCS1 | > 14.8 µM | > 14.8 µM |  |
| CCOC(=O)c1[nH]c(CN(C)Cc2[nH]c(C(=O)OCC)c(C)c2C(=O)OCc2ccccc2)c(C(=O)OCc2ccccc2)c1C | > 6.03 µM | > 6.03 µM |  |
| FC(F)(F)c1nc2ccc(SSc3ccc4nc(C(F)(F)F)[nH]c4c3)cc2[nH]1 | > 100 µM | 91.2 µM |  |
| O=Nc1c(O)ccc2ccccc12 | > 200 µM | 2.4 µM |  |
| O=[N+]([O-])c1sc2ccc(Cl)cc2c1Nc1ccc(Cl)cc1 | > 200 µM | > 200 µM |  |
| COc1ccc(/C(Cl)=C/c2ccc(Cl)c(Cl)c2)cc1 | > 200 µM | > 200 µM |  |
| COc1ccccc1NC(=O)/C(=C\N1CCNC1=S)C(C)=O | > 200 µM | > 200 µM |  |
| C/C(=N/NC(=O)c1ccncc1)c1ccc(NC(=O)C(=O)Nn2c(=S)[nH]c3ccccc3c2=O)cc1 | > 51.3 µM | > 51.3 µM |  |
| O=C(c1nsc(Cl)c1Cl)N1CCCCC1 | > 200 µM | > 200 µM |  |

| Structure (SMILES) | EC50 | IC50 | outcome |
| --- | --- | --- | --- |
| O=Cc1ccc(C(F)(F)F)cc1.[C-]#[O+].[C-]#[O+].[C-]#[O+].[Cr] | > 20 µM | 3.98 µM |  |
| Cc1cc(C)c(NS(=O)c2cccc(C(F)(F)F)c2)c(C)c1 (centres undefined) | > 110 µM | > 110 µM |  |
| CCOC(=O)C(O)(NC(C)=O)C(F)(F)F (centres undefined) | > 200 µM | > 200 µM |  |
| Cc1nc(N)nc(N)c1N1CCN(c2ccc(S(N)(=O)=O)cc2)CC1 | > 200 µM | 0.398 µM |  |
| CC1C2C1C1C3NN=CC3C2n2c(=O)n(-c3ccccc3)c(=O)n21 (centres undefined) | > 200 µM | > 200 µM |  |
| CC1=C(OC2OC(CO)C(O)C(O)C2O)C(=O)C[C@H]2C1=CC[C@@H]1[C@@]2(C)C(=O)C[C@]2(C)[C@@H]([C@@](C)(O)C(=O)CCC(C)(C)O)[C@H](O)C[C@@]12C (some centres undefined) | > 200 µM | > 200 µM |  |
| CC(C)CC1C(=O)NCCC(NC(=O)C(N)Cc2ccc(O)cc2)C(=O)NC(Cc2ccccc2)C(=O)NC(Cc2ccccc2)NC1=O (centres undefined) | > 100 µM | > 100 µM |  |
| CCOC(=O)C1=C(C)N(NC(N)=O)C2(N)N(NC(N)=O)C(C)=C(C(=O)OCC)C12C#N (centres undefined) | > 575 µM | 427 µM |  |
| COc1ccc([C@@H]2C[C@@H]3C(=O)OC(=O)[C@@H]3c3c2c2ccccc2n3C)cc1 | > 52.5 µM | > 52.5 µM |  |
| Cc1cn(C2CC(N=[N+]=[N-])C(COC(=O)[C@H]3CCC4[C@@H]5CCC6=CC(=O)CC[C@]6(C)C5[C@@H](O)C[C@@]43C)O2)c(=O)[nH]c1=O (some centres undefined) | 0.138 µM | 24 µM |  |
| Clc1ccc2c(NCCCCN=Cc3ccccc3)ccnc2c1 | > 200 µM | 26.9 µM |  |
| Cc1ccc(-c2cc(-c3ccco3)c(C#N)c(=S)n2C2OC(CO)C(O)C(O)C2O)cc1 (centres undefined) | > 200 µM | 9.33 µM and 57.5 µM |  |
| C/C(O)=C(/C=N/C(=S)Nc1ccccc1)C(=O)Nc1ccccc1C | > 200 µM | 195 µM |  |
| COc1ccc2nc3ccccc3c(NCCCN(CCCl)CCCl)c2c1 |  |  | inactive |
| CC(=O)OC1CCC2(C)C(CCC3C2CCC2(C)C3CCC2C(C)(C)O)C1 (centres undefined) | > 200 µM | 174 µM |  |
| CCOC(=O)c1ccc(CSc2ccc(N)cc2)c([N+](=O)[O-])c1 | > 40.7 µM | > 40.7 µM |  |
| CC1CCC(=O)C(C(=O)CC2CC(=O)N(C)C(=O)C2)C1 (centres undefined) | > 126 µM | > 126 µM |  |
| CCCCCC=C(c1cc(Cl)c(OC)c(C(=O)OCC)c1)c1cc(Cl)c(OC)c(C(=O)OCC)c1 | > 10 µM | > 10 µM |  |
| Cc1c(O)c2ccccc2oc1=O | > 200 µM | > 200 µM |  |
| Cc1c(/C=N/NC(=S)Nc2ccccc2Cl)c(=O)n(-c2ccccc2)n1C | > 200 µM | 26.9 µM |  |
| O=C(Nc1ncnc2c1ncn2C1CC(OC(=O)c2ccc([N+](=O)[O-])cc2)C(COC(=O)c2ccc([N+](=O)[O-])cc2)O1)c1ccccc1 (centres undefined) |  |  | inactive |

| Structure (SMILES) | EC50 | IC50 | outcome |
| --- | --- | --- | --- |
| CCOC(=O)/C(=C\c1ccc(F)cc1)P(=O)(OCC)OCC | > 759 µM | 15.1 µM |  |
| CC(C)(C)C1CCC2c3c([nH]c4ccccc34)C3C(=O)N(c4ccccc4[N+](=O)[O-])C(=O)C3C2C1 (centres undefined) | > 200 µM | 36.3 µM |  |
| O=c1[nH]c(Nc2cccc(Cl)c2)nc2nc[nH]c12 | > 200 µM | 151 µM |  |
| NC(CO)C(=O)N1CCCC1C(=O)NC(Cc1ccc(O)cc1)C(=O)N1CCCC1C(=O)NC(CO)C(=O)O (centres undefined) (H-SPYPS-OH; configuration not given here) | > 112 µM | > 112 µM |  |
| CCOC(=O)c1c2ccccc2n2c(=O)n(-c3ccc(OC)cc3)nnc12 | > 57.5 µM | 32.4 µM |  |
| COC(=O)[C@@]1(C)C(=O)CC[C@@H]1C=O | > 251 µM | 50.1 µM |  |
| COc1ccc2c(c1OC)Oc1c(OC)ccc3c1C(C2)NCC3 (centres undefined) | > 170 µM | > 100 µM |  |
| CN(C)CCNC(=O)c1ccc(Cl)c2c(Nc3ccc(S(N)(=O)=O)cc3)c3ccccc3nc12 |  |  | inactive |
| CC(=O)O[C@H]1C(=O)[C@@]2(C)[C@H]([C@H](OC(=O)c3ccccc3)[C@]3(O)C[C@H](OC(=O)[C@H](O)[C@@H](NC(=O)c4ccccc4)c4ccccc4)C(C)=C1C3(C)C)[C@]1(OC(C)=O)CO[C@@H]1C[C@@H]2O | > 0.417 µM | 0.0135 µM |  |
| Nc1ccn(C2CSC(CO)CO2)c(=O)n1 (centres undefined) | > 513 µM | 407 µM |  |
| Cc1cc2c(c(C(C)(C)C)c1)O[P+](=O)Oc1c(cc(C)cc1C(C)(C)C)C2 | > 18.6 µM | > 18.6 µM |  |
| COC(=O)c1ccc(S)c(S(=O)(=O)Nc2n[nH]c(N)n2)c1 | > 200 µM | > 200 µM |  |
| CC(C)c1cccc2sc(NC(=O)C(=O)CC(=O)c3ccc(F)cc3)nc12 |  |  | inactive |
| O=C(O)c1cc(N=Nc2cc(S(=O)(=O)O)c3cccnc3c2O)ccc1/C=C/c1ccc(N=Nc2cc(S(=O)(=O)O)c3cccnc3c2O)cc1C(=O)O | 4.27 µM and 21.4 µM | 61.7 µM and > 200 µM |  |
| O=C1OCc2cccc3c2-c2c1cccc2C(=O)OC3 |  |  | inactive |
| CCCOC(=O)C1OC12CCCCC2 (centres undefined) | > 200 µM | > 200 µM |  |
| N#CCN(Cc1ccccc1)[C@@H]1CCC[C@]1(O)C#Cc1ccc2c(c1)OCO2 | > 200 µM | 20.4 µM |  |
| CC(C)N(C(=O)c1cccc(C(=O)N(C(C)C)C(C)C)c1)C(C)C | > 759 µM | 468 µM |  |
| O=C(Nc1cccc2c1C(=O)c1c(NC(=O)c3ccccc3)ccc(Nc3cccc4c3C(=O)c3ccccc3C4=O)c1C2=O)c1ccccc1 | > 200 µM | 120 µM |  |
| Nc1cnn(C2OC(CO)C(F)C2F)c(=O)n1 (centres undefined) | > 363 µM | > 363 µM |  |
